We go through 16 compounds from patent US11339130B1 (Blade Therapeutics, Inc., priority 2016, dated 2022).

Where two headings read alike, the source gives them in different places.

The target in experiment [1] is T1, Human Calpain 1/NS1 (Homo sapiens, UniProt P07384).
T1 sequence (P07384 1-714): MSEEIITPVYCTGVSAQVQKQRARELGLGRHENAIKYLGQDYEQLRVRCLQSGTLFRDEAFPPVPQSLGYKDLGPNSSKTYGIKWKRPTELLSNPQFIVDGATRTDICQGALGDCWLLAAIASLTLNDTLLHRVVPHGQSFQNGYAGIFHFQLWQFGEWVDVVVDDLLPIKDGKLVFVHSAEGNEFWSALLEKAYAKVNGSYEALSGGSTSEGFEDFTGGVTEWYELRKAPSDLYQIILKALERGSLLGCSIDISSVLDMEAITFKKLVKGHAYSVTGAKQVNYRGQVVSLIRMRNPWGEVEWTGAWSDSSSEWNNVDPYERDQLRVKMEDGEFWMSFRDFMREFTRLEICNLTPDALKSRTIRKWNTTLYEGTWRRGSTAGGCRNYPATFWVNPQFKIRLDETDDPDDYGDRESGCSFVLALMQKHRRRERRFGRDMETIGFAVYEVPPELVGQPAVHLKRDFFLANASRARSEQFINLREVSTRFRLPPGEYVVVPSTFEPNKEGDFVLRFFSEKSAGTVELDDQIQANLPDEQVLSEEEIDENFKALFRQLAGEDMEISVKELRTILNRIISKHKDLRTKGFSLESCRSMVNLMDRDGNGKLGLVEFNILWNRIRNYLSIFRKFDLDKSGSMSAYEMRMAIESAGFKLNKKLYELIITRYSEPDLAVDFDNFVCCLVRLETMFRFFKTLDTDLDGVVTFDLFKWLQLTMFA
T1 sequence (P04632 1-268 partner): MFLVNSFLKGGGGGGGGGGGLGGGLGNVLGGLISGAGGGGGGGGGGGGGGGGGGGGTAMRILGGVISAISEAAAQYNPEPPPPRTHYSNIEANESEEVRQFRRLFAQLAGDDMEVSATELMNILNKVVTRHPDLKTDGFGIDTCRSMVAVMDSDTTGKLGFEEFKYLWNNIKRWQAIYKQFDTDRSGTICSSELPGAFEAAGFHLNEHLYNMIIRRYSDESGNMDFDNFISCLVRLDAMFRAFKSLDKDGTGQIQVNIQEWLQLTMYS
The experiment in a line: Calpain inhibition continuous fluorescence (FRET) assay, Human Calpain 1/NS1. The note with it: read-out: Human Calpain 1/NS1 IC50. It counts as biochemical. The procedure, abridged:
(§1)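 Continuous FRET read (ex 490/em 520 nm, 10 min) of calpain 1, 2 or 9 cleaving an internally quenched 5-FAM peptide, triggered by substrate with CaCl2 after enzyme–inhibitor incubation at ambient 25 °C, pH 7.5 Tris/NaCl/DTT buffer. IC50 from initial rates (1-5 min) via 4-parameter fit.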

In experiment [2] the target is T2, Human Calpain 2/NS1 (Homo sapiens, UniProt P17655).
T2 sequence (P17655 1-700): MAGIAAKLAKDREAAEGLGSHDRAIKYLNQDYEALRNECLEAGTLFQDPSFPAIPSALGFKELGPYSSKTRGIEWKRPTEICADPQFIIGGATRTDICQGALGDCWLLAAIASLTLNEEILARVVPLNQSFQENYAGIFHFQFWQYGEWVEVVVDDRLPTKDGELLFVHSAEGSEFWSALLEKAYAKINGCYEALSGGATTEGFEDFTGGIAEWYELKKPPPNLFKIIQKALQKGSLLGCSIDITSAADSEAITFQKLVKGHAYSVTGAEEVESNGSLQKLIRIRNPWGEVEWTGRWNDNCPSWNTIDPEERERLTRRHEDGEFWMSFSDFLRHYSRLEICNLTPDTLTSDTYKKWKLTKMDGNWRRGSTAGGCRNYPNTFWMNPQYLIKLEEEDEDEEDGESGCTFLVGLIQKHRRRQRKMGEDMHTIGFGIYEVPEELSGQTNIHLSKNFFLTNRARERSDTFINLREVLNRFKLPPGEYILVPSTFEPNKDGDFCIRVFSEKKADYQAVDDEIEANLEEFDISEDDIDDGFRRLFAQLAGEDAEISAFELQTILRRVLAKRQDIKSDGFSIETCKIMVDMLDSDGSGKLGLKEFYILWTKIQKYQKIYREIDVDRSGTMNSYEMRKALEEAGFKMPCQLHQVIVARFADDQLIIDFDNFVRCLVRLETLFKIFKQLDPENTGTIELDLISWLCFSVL
T2 sequence (P04632 1-268 partner): T1 sequence (P04632 1-268 partner)
The experiment in a line: Calpain inhibition continuous fluorescence (FRET) assay, Human Calpain 2/NS1. It counts as biochemical. To be noted: read-out: Human Calpain 2/NS1 IC50. An outline of the steps: as §1

Experiment [3] has as its target T3, Human Calpain 9/NS1 (Homo sapiens, UniProt O14815).
T3 sequence (O14815 1-690): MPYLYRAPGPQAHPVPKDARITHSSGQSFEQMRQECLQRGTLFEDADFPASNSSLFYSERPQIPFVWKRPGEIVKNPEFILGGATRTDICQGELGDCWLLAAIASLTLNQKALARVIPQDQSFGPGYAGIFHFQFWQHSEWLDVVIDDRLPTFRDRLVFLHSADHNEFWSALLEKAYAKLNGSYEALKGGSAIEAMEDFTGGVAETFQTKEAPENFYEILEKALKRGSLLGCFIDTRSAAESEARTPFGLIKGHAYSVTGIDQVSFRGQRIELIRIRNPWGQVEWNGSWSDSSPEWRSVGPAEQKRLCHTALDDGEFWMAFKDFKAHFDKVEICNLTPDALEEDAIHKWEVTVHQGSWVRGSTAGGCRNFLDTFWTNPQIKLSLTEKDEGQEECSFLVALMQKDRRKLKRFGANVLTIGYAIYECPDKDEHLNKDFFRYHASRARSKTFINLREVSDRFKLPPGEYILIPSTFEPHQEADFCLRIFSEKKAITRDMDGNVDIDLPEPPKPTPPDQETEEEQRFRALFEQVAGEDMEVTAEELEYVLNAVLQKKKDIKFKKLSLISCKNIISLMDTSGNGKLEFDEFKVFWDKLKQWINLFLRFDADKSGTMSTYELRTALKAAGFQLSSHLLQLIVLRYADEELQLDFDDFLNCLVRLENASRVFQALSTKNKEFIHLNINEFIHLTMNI
T3 sequence (P04632 1-268 partner): T1 sequence (P04632 1-268 partner)
The experiment in a line: Calpain inhibition continuous fluorescence (FRET) assay, Human Calpain 9/NS1. It counts as biochemical. To be noted: read-out: Human Calpain 9/NS1 IC50. The procedure, abridged: as §1

The test system of experiment [4] is Calpain activity in SH-SY5Y cells. The experiment is described as follows: SH-SY5Y + AMC fluorescence assay (Suc-LLVY-AMC substrate). The note with it: read-out: SH-SY5Y + AMC IC50. It counts as cell-based.

For the compound `NC(=O)C(=O)[C@H](Cc1ccccc1)NC(=O)[C@@H]1CCCN1c1ccccc1` [Compound 308, (S)—N—((S)-4-amino-3,4-dioxo-1-phenylbutan-2-yl)-1-phenylpyrrolidine-2-carboxamide], the IC50 in experiment [1] is less than 3 µM; in experiment [2], less than 3 µM; in experiment [3], less than 3 µM; in experiment [4], greater than 25 µM.

For `Cc1cccc(-c2nsnc2C(=O)NC(Cc2ccccc2)C(=O)C(N)=O)c1F` (stereo not shown) [Compound 368, N-(4-amino-3,4-dioxo-1-phenylbutan-2-yl)-4-(2-fluoro-3-methylphenyl)-1,2,5-thiadiazole-3-carboxamide], the IC50 in experiment [1] was less than 3 µM; in experiment [2], less than 3 µM; in experiment [3], less than 3 µM; in experiment [4], less than 10 µM.

For the compound “(S)—N-(4-amino-3,4-dioxo-1-phenylbutan-2-yl)-1-methyl-3-(pyrimidin-4-yl)-1H-pyrazole-4-carboxamide [Compound 193]”, the IC50 in experiment [1] (Column A) was 3 to 10 µM; in experiment [2] (Column B), less than 3 µM; in experiment [3] (Column C) it was 3 to 10 µM; in experiment [4] (Column E) it was greater than 25 µM.

As to `NC(=O)C(=O)[C@H](Cc1ccccc1)NC(=O)c1conc1-c1cccc(F)c1` [Compound 323, (S)—N-(4-amino-3,4-dioxo-1-phenylbutan-2-yl)-3-(3-fluorophenyl)isoxazole-4-carboxamide], the IC50 is less than 3 µM in experiment [1], less than 3 µM in experiment [2], less than 3 µM in experiment [3] and greater than 25 µM in experiment [4].

On to `O=C(NC1CC1)C(=O)[C@H](Cc1ccccc1)NC(=O)c1cncn1-c1ccn(-c2ccccc2)n1` [Compound 42, (S)—N-(4-(cyclopropylamino)-3,4-dioxo-1-phenylbutan-2-yl)-1-(1-phenyl-1H-pyrazol-3-yl)-1H-imidazole-5-carboxamide], for which the IC50 in experiment [1] (Column A) was less than 3 µM; in experiment [2] (Column B), less than 3 µM; in experiment [3] (Column C), greater than 10 µM.

On to `N#Cc1cc(C(=O)N[C@@H](Cc2ccccc2)C(=O)C(N)=O)n(-c2ccccc2)n1` [Compound 272, (S)—N-(4-amino-3,4-dioxo-1-phenylbutan-2-yl)-3-cyano-1-phenyl-1H-pyrazole-5-carboxamide], for which the IC50 in experiment [1] (Column A) is greater than 10 µM; in experiment [2] (Column B) it was 3 to 10 µM; in experiment [3] (Column C) it was 3 to 10 µM.

`Cc1cc(C(=O)N[C@@H](Cc2ccccc2)C(=O)C(=O)NC2CC2)n(-c2nc3ccccc3n2C)n1` [Compound 295, (S)—N-(4-(cyclopropylamino)-3,4-dioxo-1-phenylbutan-2-yl)-3-methyl-1-(1-methyl-1H-benzo[d]imidazol-2-yl)-1H-pyrazole-5-carboxamide]: the IC50 in experiment [1] (Column A), in experiment [2] (Column B) and in experiment [3] (Column C) was greater than 10 µM in each case.

With `NC(=O)C(=O)[C@H](Cc1ccccc1)NC(=O)c1cnnn1-c1ccccc1` [Compound 263, (S)—N-(4-amino-3,4-dioxo-1-phenylbutan-2-yl)-1-phenyl-1H-1,2,3-triazole-5-carboxamide], the IC50 in experiment [1] (Column A), in experiment [2] (Column B) and in experiment [3] (Column C) was less than 3 µM throughout.

`O=C(NC1CC1)C(=O)[C@H](Cc1ccccc1)NC(=O)c1nn[nH]c1-c1ccccc1` [Compound 204, (S)—N-(4-(cyclopropylamino)-3,4-dioxo-1-phenylbutan-2-yl)-5-phenyl-1H-1,2,3-triazole-4-carboxamide]: the IC50 in experiment [1] (Column A), in experiment [2] (Column B) and in experiment [3] (Column C) was greater than 10 µM throughout.

Take `Cc1cc(C(=O)N[C@@H](Cc2ccccc2)C(=O)C(N)=O)nn1-c1nc2ccccc2[nH]1` [Compound 264, (S)—N-(4-amino-3,4-dioxo-1-phenylbutan-2-yl)-1-(1H-benzo[d]imidazol-2-yl)-5-methyl-1H-pyrazole-3-carboxamide]: the IC50 in experiment [1] (Column A) was 3 to 10 µM; in experiment [2] (Column B), 3 to 10 µM; in experiment [3] (Column C) it was greater than 10 µM.

Regarding `Cn1cc(C(=O)NC(Cc2ccccc2)C(=O)C(N)=O)c(C2CC2)n1` (stereo not shown) [Compound 616, N-(4-amino-3,4-dioxo-1-phenylbutan-2-yl)-3-cyclopropyl-1-methyl-1H-pyrazole-4-carboxamide], the IC50 was 3 to 10 µM in experiment [1], less than 3 µM in experiment [2] and 3 to 10 µM in experiment [3].

For the compound `O=C[C@H](Cc1ccccc1)NC(=O)[C@@H]1CCCN1c1nc2ccccc2s1` [Compound 3, (S)-1-(benzo[D]thiazol-2-yl)-N—((S)-1-oxo-3-phenylpropan-2-yl)pyrrolidine-2-carboxamide], the IC50 in experiment [1] (Column A), in experiment [2] (Column B) and in experiment [3] (Column C) was less than 3 µM throughout.

As for `O=C[C@H](Cc1ccccc1)NC(=O)c1cncn1-c1ccc(-c2ncco2)cn1` [Compound 111, (S)-1-(5-(oxazol-2-yl)pyridin-2-yl)-N-(1-oxo-3-phenylpropan-2-yl)-1H-imidazole-5-carboxamide], the IC50 in experiment [1] (Column A), in experiment [2] (Column B) and in experiment [3] (Column C) was less than 3 µM in each case.

Regarding `NC(=O)C(=O)[C@H](Cc1ccccc1)NC(=O)c1cncn1-c1ncc(-c2ccccc2)s1` [Compound 52, (S)—N-(4-amino-3,4-dioxo-1-phenylbutan-2-yl)-1-(5-phenylthiazol-2-yl)-1H-imidazole-5-carboxamide], the IC50 in experiment [1] (Column A), in experiment [2] (Column B) and in experiment [3] (Column C) was less than 3 µM throughout.

Turning to `Cn1ncc(-c2ccccc2)c1C(=O)N[C@@H](Cc1ccccc1)C(=O)C(N)=O` [Compound 240], the IC50 in experiment [1] (Column A), in experiment [2] (Column B) and in experiment [3] (Column C) was less than 3 µM in each case.

For the compound `Cn1cc(C(=O)NC(Cc2ccccc2)C(=O)C(N)=O)c(C2CCOCC2)n1` (stereo not shown) [Compound 617, N-(4-amino-3,4-dioxo-1-phenylbutan-2-yl)-1-methyl-3-(tetrahydro-2H-pyran-4-yl)-1H-pyrazole-4-carboxamide], the IC50 in experiment [1] is 3 to 10 µM; in experiment [2] it was less than 3 µM; in experiment [3], less than 3 µM.
